Results: patent US20220168384A1, “Anti-Bacterial Combination Therapy” (McMaster University, priority 2019, published 2022)
In brackets after ≈: the same amount, converted by molar mass. Where two headings read alike, the source gives them in different places.

What was measured:
[1] = system: P. aeruginosa PA14 and Mar2xT7 transposon mutants; assay: MIC microbroth dilution assay, thiostrepton susceptibility of PA14 and mutants; type: cell-based, Pseudomonas aeruginosa; conditions: for MIC / IC50: Pseudomonas aeruginosa, VBMM; for IC50: read-out: ICCO
Method: MICs were determined with microbroth dilution assays in Nunc 96-well plates. Vehicle controls consisted of 1:75 dilutions of DMSO in 10:90 inoculated with PA14 or its mutants as described in “Growth Curves” above. Sterile controls consisted of 1:75 dilutions of DMSO in 10:90. Seven serially diluted concentrations of TS—with 17 μg/mL being the highest final concentration—was set up in triplicate. Tests were done with 1:75 dilutions of each TS concentration in 10:90 inoculated with PA14 or its mutants as described in Growth Curves. Plates were sealed to prevent evaporation and incubated with shaking at 200 rpm, 16 h, 37° C. The OD600 of the plates was read (Multiskan Go—Thermo Fisher Scientific) and used to calculate MIC. Growth is proportional to the darkness intensity whereas white indicates no observable growth. The final volume of each well was 150 μL and each experiment was repeated at least three times.
To identify the route of iron-limitation dependent TS entry into P. aeruginosa, the susceptibility of mutants from the ordered PA14 transposon library (15) that had insertions in genes encoding known siderophore receptors, as well as mutants with insertions in uncharacterized OM proteins with homology to siderophore receptors was tested. In VBMM, most mutants had MICs similar to those of the parental strain (Table 1). […]. P. aeruginosa encodes two type I pyoverdine receptors, FpvA and FpvB, with ˜39% amino acid identity (71% similarity). […]. When fpvA was deleted in the fpvB background, the double mutant had similar resistance levels to the fpvA single mutant (Table 1), but complementation of that mutant with fpvB on a low-copy number plasmid increased TS susceptibility (Table 1).

E. coli BW25113 = assay: Thiostrepton susceptibility of E. coli in MHB versus 10:90; type: cell-based, Escherichia coli; conditions: 10:90 medium; up to 10 μM (17 μg/ml) TS
Description: The susceptibility of P. aeruginosa PA14, E. coli BW25113, A. baumannii C0286, and S. aureus USA300 was compared in MHB versus 10:90 medium. E. coli lacks FpvAB and is resistant to TS in both media.

[2] = PA14, strain chtA::Mar2xT7 (PA4675)
[3] = PA14, strain fithA::Mar2xT7 (PA4516)
[4] = PA14, strain fiuA::Mar2xT7 (PA0470)
[5] = PA14, strain foxA::Mar2xT7 (PA2466)
[6] = PA14, strain fptA::Mar2xT7 (PA4221)
[7] = PA14, strain fpvA fpvB::Mar2xT7 (PA2398, PA4168)
[8] = PA14, strain fpvA fpvB::Mar2xT7 + pUCP20-fpvB
[9] = PA14, strain fpvA fpvB::Mar2xT7 + pUCP20
[10] = PA14, strain fpvA::Mar2xT7 (PA2398)
[11] = PA14, strain fpvB::Mar2xT7 (PA4168)
[12] = PA14, strain hasR::Mar2xT7 (PA3408)
[13] = PA14, strain pfeA::Mar2xT7 (PA2688)
[14] = PA14, strain phuR::Mar2xT7 (PA4710)
[15] = PA14, strain pirA::Mar2xT7 (PA0931)
[16] = PA14, strain piuA::Mar2xT7 (PA4514)
[17] = PA14, strain pvdA::Mar2xT7 (PA2386)

With `C=C(NC(=O)C(=C)NC(=O)c1csc(C2=N[C@@H]3c4csc(n4)[C@H]4NC(=O)c5csc(n5)[C@H]([C@](C)(O)[C@@H](C)O)NC(=O)[C@H]5CSC(=N5)/C(=C/C)NC(=O)[C@H]([C@@H](C)O)NC(=O)c5csc(n5)[C@]3(CC2)NC(=O)[C@H](C)NC(=O)C(=C)NC(=O)[C@H](C)NC(=O)[C@H]([C@@H](C)CC)N[C@@H]2C=Cc3c([C@H](C)O)cc(nc3[C@H]2O)C(=O)O[C@@H]4C)n1)C(N)=O` [TS, thiostrepton] the “susceptibility to TS in Mueller-Hinton broth” value ([1]; P. aeruginosa PA14, nutrient-rich MHB versus 10:90) was “reduced susceptibility”, the MIC ([1]; PA14, strain PA14 (wild type)) was 0.6 µM (≈ 0.999 µg/mL) and the IC50 ([1]; PA14, strain PA14 (wild type)) was 0.26 µg/mL (≈ 0.156 µM). For the same molecule, the MIC ([1]; PA14, strain PA0151::Mar2xT7) was 0.45 µM (≈ 0.749 µg/mL), the IC50 ([1]; PA14, strain PA0151::Mar2xT7) was 0.26 µg/mL (≈ 0.156 µM) and the MIC ([1]; PA14, strain PA1322::Mar2xT7) was 0.41 µM (≈ 0.683 µg/mL). The IC50 ([1]; PA14, strain PA1322::Mar2xT7) was 0.26 µg/mL (≈ 0.156 µM), the MIC ([1]; PA14, strain PA4837::Mar2xT7) was 0.41 µM (≈ 0.683 µg/mL) and the IC50 ([1]; PA14, strain PA4837::Mar2xT7) was 0.26 µg/mL (≈ 0.156 µM). For the same molecule, the MIC [1, 2] was 0.36 µM (≈ 0.599 µg/mL), the IC50 [1, 2] was 0.59 µg/mL (≈ 0.354 µM) and the MIC [1, 3] was 0.5 µM (≈ 0.832 µg/mL). It also gave an IC50 [1, 3] of 0.26 µg/mL (≈ 0.156 µM), an MIC [1, 4] of 0.36 µM (≈ 0.599 µg/mL) and an IC50 [1, 4] of 0.26 µg/mL (≈ 0.156 µM). For the same molecule, the MIC [1, 5] was 0.6 µM (≈ 0.999 µg/mL), the IC50 [1, 5] was 0.26 µg/mL (≈ 0.156 µM) and the MIC [1, 6] was 0.45 µM (≈ 0.749 µg/mL). It also gave an IC50 [1, 6] of 0.26 µg/mL (≈ 0.156 µM), an MIC [1, 7] of 7.5 µM (≈ 12.5 µg/mL) and an IC50 [1, 7] of 6.9 µg/mL (≈ 4.14 µM). The MIC [1, 8] was 2.5 µM, the IC50 [1, 8] was 2.8 µg/mL and the MIC [1, 9] was 7.5 µM. It also gave an IC50 [1, 9] of 4.2 µg/mL, an MIC [1, 10] of 7.5 µM (≈ 12.5 µg/mL) and an IC50 [1, 10] of 3.7 µg/mL (≈ 2.22 µM). It also gave an MIC [1, 11] of 1.3 µM (≈ 2.16 µg/mL), an IC50 [1, 11] of 1.8 µg/mL (≈ 1.08 µM) and an MIC [1, 12] of 0.6 µM (≈ 0.999 µg/mL). The IC50 [1, 12] was 0.35 µg/mL (≈ 0.21 µM), the MIC [1, 13] was 0.82 µM (≈ 1.37 µg/mL) and the IC50 [1, 13] was 0.26 µg/mL (≈ 0.156 µM). The MIC [1, 14] was 0.21 µM (≈ 0.35 µg/mL), the IC50 [1, 14] was 0.26 µg/mL (≈ 0.156 µM) and the MIC [1, 15] was 0.6 µM (≈ 0.999 µg/mL). For the same molecule, the IC50 [1, 15] was 0.35 µg/mL (≈ 0.21 µM), the MIC [1, 16] was 0.36 µM (≈ 0.599 µg/mL) and the IC50 [1, 16] was 0.35 µg/mL (≈ 0.21 µM). For the same molecule, the MIC [1, 17] was 0.21 µM (≈ 0.35 µg/mL), the IC50 [1, 17] was 0.26 µg/mL (≈ 0.156 µM) and the growth (E. coli BW25113) was “unaffected”.
